Experiments:
[1] = Pharmacokinetics in mice, plasma; assay type: in vivo, C57BL/6 mice; conditions: 10 mg/kg
Procedure: (§1) Animals. Male C57BL/6 mice, aged 8-12 weeks, were used in these studies. Four mice were housed in each cage. Temperature and humidity were maintained at 22±3° C. and 30-70%, respectively, and illumination was controlled to give a 12 h light and 12 h dark cycle. Temperature and humidity were recorded by an auto-controlled data logger system. All animals were provided laboratory rodent diet. Reverse osmosis water treated with ultraviolet light was provided ad libitum. Animals were randomly assigned to treatment groups.
(§2) Drugs. Compounds 4 and 5 were prepared as described above. All other compounds were commercially obtained. Test compounds were used as the hydrogen fumarate (1 and 2) or hydrochloride (3, 4, and 5) salts and were dissolved in a vehicle consisting of normal saline. They were then administered intravenously (IV) via the tail vein, subcutaneously (SC), or orally (PO) via gavage at a dose of 1 or 10 mg/kg (calculated based on the free base) and at a volume of 5 ml/kg body weight.
(§3) Sample Collection and Bioanalysis. Blood samples (approximately 60 μL) were collected under light isoflurane anesthesia (Surgivet®) from the retro orbital plexus at 0.08, 0.25, 0.5, 1, 2, 4, 8, and 24 h (4 animals per time point). Immediately after blood collection, plasma was harvested by centrifugation at 4,000 rpm for 10 min at 4° C. and samples were stored at −70±10° C. until bioanalysis. Following blood collection, animals were immediately sacrificed, the abdominal vena-cava was cut open, and the whole body was perfused from the heart using 10 mL of normal saline, and brain samples were collected from all animals. After isolation, brain samples were rinsed three times in ice-cold normal saline (for 5-10 seconds/rinse using ˜5-10 mL normal saline in disposable petri dish for each rinse) and dried on blotting paper. Brain samples were homogenized using ice-cold phosphate-buffered saline (pH 7.4). Total homogenate volume was three times the tissue weight. All homogenates were stored at −70±10° C. until bioanalysis. For bioanalysis, 25 μL aliquots of plasma/brain study samples or spiked plasma/brain calibration standards were added to individual pre-labeled micro-centrifuge tubes followed by 100 μL of an internal standard solution (glipizide, 500 ng/ml in acetonitrile) except for blanks, where 100 μL of acetonitrile was added. Samples were vortexed for 5 minutes and then centrifuged for 10 minutes at 4,000 rpm at 4° C. Following centrifugation, 100 μL of each clear supernatant was transferred to a 96 well plate and analyzed with a fit-for-purpose LC-MS/MS method, with authentic samples of each analyte used for calibration and identification.
(§4) Data Analysis. Pharmacokinetic parameters were estimated using the non-compartmental analysis tool of Phoenix® WinNonlin software (Ver 8.0).

[2] = Pharmacokinetics in mice, brain; assay type: in vivo, C57BL/6 mice; conditions: 10 mg/kg
Procedure: as §1, §2, §3, §4

CYP2C19 = CYP2C19 (Homo sapiens (Human), UniProt P33261); assay: CYP inhibition in human liver microsomes, CYP2C19; assay type: in vitro ADME; conditions: both sexes, human, pooled human liver microsomes, pH 7.4, probe (S)-mephenytoin (30 μM); HLM, 10 μM, (S)-mephenytoin substrate; read-out: CYP 2C19 % Inhibition at 10 μM
Sequence of CYP2C19 (P33261 whole entry, looked up): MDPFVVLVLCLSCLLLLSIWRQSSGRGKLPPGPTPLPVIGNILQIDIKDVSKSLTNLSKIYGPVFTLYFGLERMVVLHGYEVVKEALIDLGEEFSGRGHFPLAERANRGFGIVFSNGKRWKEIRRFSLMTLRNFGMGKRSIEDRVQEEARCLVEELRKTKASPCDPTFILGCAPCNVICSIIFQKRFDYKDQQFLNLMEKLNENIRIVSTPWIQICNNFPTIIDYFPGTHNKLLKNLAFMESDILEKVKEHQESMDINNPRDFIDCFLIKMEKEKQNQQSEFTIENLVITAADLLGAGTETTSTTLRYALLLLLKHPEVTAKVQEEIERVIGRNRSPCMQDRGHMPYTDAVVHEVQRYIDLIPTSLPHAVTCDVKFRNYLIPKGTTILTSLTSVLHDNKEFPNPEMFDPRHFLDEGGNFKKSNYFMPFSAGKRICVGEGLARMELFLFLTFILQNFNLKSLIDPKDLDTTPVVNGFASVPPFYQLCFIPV
Procedure: HLM Incubations. Pooled HLM from adult male and female donors (Corning 452117) were used. Microsomal incubations were carried out in multi-well plates. Liver microsomal incubation aliquots contained 1) PBS (100 mM, pH 7.4), MgCl2 (3.3 mM), and NADPH (1 mM); 2) liver microsomal protein (0.2 mg/mL); 3) the reference CYP substrates: phenacetin for CYP1A2 (10 μM), diclofenac for CYP2C9 (5 μM), (S)-mephenytoin for CYP2C19 (30 μM), dextromethorphan for CYP2D6 (5 μM), and midazolam for CYP3A4 (2 μM); and 4) test compounds (10 μM), control inhibitors (3 μM α-naphthoflavone for CYP1A2, 3 μM sulfaphenazole for CYP2C9, 1 μM (+)-N-3-benzylnirvanol for 2C19, 3 μM quinidine for CYP2D6, or 3 μM ketoconazole for CYP3A4), or solvent (for uninhibited condition). Incubations were carried out at 37° C. with constant shaking for 10 minutes.
Sample Analysis. […] Percent inhibition by test compounds or control inhibitors was calculated by comparing the metabolite formation in the presence of the inhibitor compared to the metabolite formation in the absence of the inhibitor.

human 5-HT2C receptor = human 5-HT2C receptor (Homo sapiens (Human), UniProt P28335); assay: cell-based; assay type: cell-based; conditions: Ca2+ flux
Sequence of human 5-HT2C receptor (P28335 33-458 limits assumed): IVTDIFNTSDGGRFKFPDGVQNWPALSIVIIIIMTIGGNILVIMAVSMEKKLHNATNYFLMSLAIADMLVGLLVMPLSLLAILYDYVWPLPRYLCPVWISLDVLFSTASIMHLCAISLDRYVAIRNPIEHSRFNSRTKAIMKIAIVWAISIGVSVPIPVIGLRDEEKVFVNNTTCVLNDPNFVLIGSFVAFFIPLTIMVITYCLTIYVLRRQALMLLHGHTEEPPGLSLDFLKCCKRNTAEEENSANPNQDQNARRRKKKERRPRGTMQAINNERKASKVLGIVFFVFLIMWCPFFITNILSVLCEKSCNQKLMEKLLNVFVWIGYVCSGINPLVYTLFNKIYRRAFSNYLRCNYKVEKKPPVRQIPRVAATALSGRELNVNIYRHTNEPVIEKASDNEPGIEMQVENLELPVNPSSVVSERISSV

[3] = Stability in mouse brain homogenate; assay type: in vitro ADME, CD-1 mice
Procedure: Mouse Brain Homogenate Stability. Frozen mouse brain homogenate (pooled from male CD-1 mice, BioreclamationIVT, MSE00BRAINMZA) was thawed in a water bath at 37° C. immediately prior to use. Positive controls and test compounds (final concentration in incubation medium=1 μM for test compounds and 2 μM for controls, all with 2% DMSO) were incubated in duplicate for each time point (0, 10, 30, 60, and 120 min) in the mouse brain homogenate at a total reaction volume of […] at 37° C. At the end of each incubation period, reactions were immediately quenched with 400 μL of acetonitrile containing internal standard (200 ng/mL tolbutamine and 200 ng/ml labetalol) and mixed thoroughly. Plates were then sealed, shaken for 20 min, and centrifuged at 4,000 rpm and 4° C. for 20 min. Aliquots of 50 μL of each supernatant were diluted into 100 μL of water and the mixtures were then shaken again for 10 min.

[4] = male, C57BL/6, mouse plasma, IV
[5] = male, C57BL/6, mouse plasma, oral
[6] = male, C57BL/6, mouse brain, oral

**Q.** Which results are given for `CCCN(CC)CCc1c[nH]c2ccccc12` [Compound 1, ethylpropyltryptamine]?
**A.** AUC(0-t) [1, 4]: 844 ng·h/mL; clearance [1, 4]: 197 mL/min/kg; half-life [1, 4]: 1.9 h; Cmax ([1]; male, C57BL/6, mouse plasma, IV, read-out: Cmax (C0 back-extrapolated to t = 0)): 3820 ng/mL; AUC(0-t) [1, 5]: 22.1 ng·h/mL; Tmax [1, 5]: 4.8 min; half-life [1, 5]: 1.88 h; Cmax ([1]; male, C57BL/6, mouse plasma, oral, read-out: Cmax): 20.3 ng/mL; F ([1]; mouse, oral, based on plasma AUC0-last): 2.6%; half-life ([2]; male, C57BL/6, mouse brain, IV): 1.73 h; Cmax ([2]; male, C57BL/6, mouse brain, IV, read-out: Cmax (C0 back-extrapolated to t = 0)): 15400 ng/g; Tmax [2, 6]: 0.25 h; half-life [2, 6]: 0.66 h; Cmax ([2]; male, C57BL/6, mouse brain, oral, read-out: Cmax): 101 ng/g; AUC0-last ([2]; mouse brain, IV): 4,754.52 h*ng/g; AUC0-last ([2]; mouse brain, oral): 68.93 ng·h/g; F ([2]; mouse, oral, based on brain AUC0-last): 1.4%; inhibition at 10 min, 10 µM (CYP2C19): 2.3%; 5-HT2C % Act @ Max Dose (human 5-HT2C receptor): 90.8%; EC50 (human 5-HT2C receptor): 33.4 nM; stability in mouse brain homogenate (in words) [3]: high stability; half-life at 1 μM ([3]; male, CD-1, mouse brain homogenate, 1 μM, 37° C.): > 4.82 h; % Compound Remaining (after 120 min) ([3]; mouse brain homogenate, 1 μM, 37° C.): 113.8%
